These results are taken from patent US20230059136A1, “THE COMPOUNDS AND COMPOSITIONS FOR TREATING CONDITIONS ASSOCIATED WITH NLRP ACTIVITY” (Novartis AG, priority 2018, published 2023).

The subject of one experiment is IL-1β production in PMA-differentiated THP-1 cells. Nature of the experiment: hTHP-1 assay containing 10% fetal bovine serum (IL-1β production, gramicidin-stimulated THP-1 cells). It counts as cell-based, human. The note with it: Homo sapiens, THP-1, read-out: hTHP-1 IC50 in 10% FBS, average IC50. As to the method: Activity key: <0.008 μM=“++++++”; ≥0.008 and <0.04 μM=“+++++”; ≥0.04 and <0.2 μM=“++++”; ≥0.2 and <1 μM=“+++”; ≥1 and <5 μM=“++”; ≥5 and <30 μM=“+”. ND=not determined.
One may read the IC50 as the concentration that inhibits the measured activity by half. On to `CC(C)c1c2c(c3c(c1CC(=O)N=S(N)(=O)c1sc(C(C)(C)O)cc1F)CCC3)COC2` (single isomer, unassigned) [Example 411, (R) or (S)-N-(amino(3-fluoro-5-(2-hydroxypropan-2-yl)thiophen-2-yl)(oxo)-λ^6-sulfaneylidene)-2-(4-isopropyl-3,6,7,8-tetrahydro-1H-indeno[4,5-c]furan-5-yl)acetamide], for which the IC50 fell in the range of 200 to 1000 nM.

Staying with this experiment, now noted: read-out: hTHP-1 IC50 in 10% FBS, average IC50.
Take `CNCc1ccc(S(N)(=O)=NC(=O)Cc2c(-c3ccccc3)cc(F)cc2C(C)C)cc1` (single isomer, unassigned) [Example 414, (R) or (S)-N-(amino(4-((methylamino)methyl)phenyl) (oxo)-λ^6-sulfaneylidene)-2-(5-fluoro-3-isopropyl-[1,1′-biphenyl]-2-yl)acetamide]: the IC50 is 200 to 1000 nM. For `CC(C)c1cc2c(c(C(C)C)c1CC(=O)N=S(N)(=O)c1nn(C[C@@H](C)O)cc1F)OC(F)(F)O2` (single isomer, unassigned) [Example 416, (S) or (R)-N-(amino(4-fluoro-1-((R)-2-hydroxypropyl)-1H-pyrazol-3-yl)(oxo)-λ^6-sulfaneylidene)-2-(2,2-difluoro-4,6-diisopropylbenzo[d][1,3]dioxol-5-yl)acetamide], the IC50 lay in the range of 5000 to 30000 nM. The same measure, in the same setting: the result for `CC(C)c1cc2c(c(C(C)C)c1CC(=O)N=S(N)(=O)c1nn(C[C@@H](C)O)cc1F)OC(F)(F)O2` (single isomer, unassigned) [Example 415, (R) or (S)-N-(amino(4-fluoro-1-((R)-2-hydroxypropyl)-1H-pyrazol-3-yl)(oxo)-λ^6-sulfaneylidene)-2-(2,2-difluoro-4,6-diisopropylbenzo[d][1,3]dioxol-5-yl)acetamide] reads 40 to 200 nM; that for `CNCc1ccc(S(N)(=O)=NC(=O)Cc2c(-c3ccccc3)cc(F)cc2C(C)C)cc1` (single isomer, unassigned) [Example 413, (S) or (R)-N-(amino(4-((methylamino)methyl)phenyl) (oxo)-λ^6-sulfaneylidene)-2-(5-fluoro-3-isopropyl-[1,1′-biphenyl]-2-yl)acetamide], 5000 to 30000 nM.

Another experiment shares this test system. Nature of the experiment: IL-1β production in PMA-differentiated THP-1 cells stimulated with gramicidin (hTHP-1 assay containing 2% fetal bovine serum). Type of experiment: cell-based, human. The note with it: Homo sapiens, THP-1, Table B1; 2% fetal bovine serum; cells printed as numeric bound; read-out: hTHP-1 IC50 (Average IC50 of compounds in hTHP-1 assay). In a few lines: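 THP-1 cells were differentiated with PMA 20 ng/ml for 16-18 h, then plated at 50,000 cells/well in RPMI with 2% FBS. They were preincubated 1 h with compound (100–0.0017 μM final, 0.37% DMSO), then stimulated with gramicidin 5 μM for 2 h. Supernatant IL-1β was measured by HTRF.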
As for `CC(C)(O)c1ncc(S(N)(=O)=NC(=O)Cc2cc3c(c4c2CCC4)CCC3)s1` (single isomer, unassigned) [Example 314, (S) or (R)-N-(amino(2-(2-hydroxypropan-2-yl)thiazol-5-yl)(oxo)-λ^6-sulfaneylidene)-2-(1,2,3,6,7,8-hexahydro-as-indacen-4-yl)acetamide], the IC50 is above 30000 nM.

The same experiment, now with this note: Homo sapiens, THP-1, Table B1; 2% fetal bovine serum; class symbols; read-out: hTHP-1 IC50 (Average IC50 of compounds in hTHP-1 assay).
With `CCc1c2c(cc(C(C)C)c1CC(=O)N=S(N)(=O)c1cnc(C(C)(C)O)s1)COC2` (single isomer, unassigned) [Example 289, (R) or (S)-N-(amino(2-(2-hydroxypropan-2-yl)thiazol-5-yl)(oxo)-λ^6-sulfaneylidene)-2-(4-ethyl-6-isopropyl-1,3-dihydroisobenzofuran-5-yl)acetamide], the IC50 lay within 5000 to 30000 nM. Consider `CC(C)c1cc(F)cc(C(C)C)c1CC(=O)NS(=N)(=O)c1ncc(C(C)(C)O)s1` (single isomer, unassigned) [Example 9], for which the IC50 is 200 to 1000 nM. As to `CC(C)c1cc2c(c(C(C)C)c1CC(=O)N=S(=O)(NC#N)c1cc(C(C)(C)O)cs1)COC2` (stereo in doubt) [Example 344, (R)-N-(cyanamido(4-(2-hydroxypropan-2-yl)thiophen-2-yl)(oxo)-λ^6-sulfaneylidene)-2-(4,6-diisopropyl-1,3-dihydroisobenzofuran-5-yl)acetamide], the IC50 fell in the range of 200 to 1000 nM.

As to `CCc1cc2c(c(C(C)C)c1CC(=O)N=S(N)(=O)c1sc(C(C)(C)O)cc1F)COC2` (stereo not drawn) [Example 263, N-(amino(3-fluoro-5-(2-hydroxypropan-2-yl)thiophen-2-yl)(oxo)-λ^6-sulfaneylidene)-2-(6-ethyl-4-isopropyl-1,3-dihydroisobenzofuran-5-yl)acetamide], the IC50 fell in the range of 1000 to 5000 nM. Take `CC(C)c1cc(C(F)F)cc(C(C)C)c1CC(=O)N=S(N)(=O)c1ccc(CN(C)C)nc1` (single isomer, unassigned) [Example 328, (R) or (S)-N-(amino(6-((dimethylamino)methyl)pyridin-3-yl)(oxo)-λ^6-sulfaneylidene)-2-(4-(difluoromethyl)-2,6-diisopropylphenyl) acetamide]: the IC50 lay within 1000 to 5000 nM.

On to `CC(C)c1cc(C(=O)CC2CCCCC2)cc(C(C)C)c1CC(=O)N=S(N)(=O)c1cc(C(C)(C)O)n(-c2ccccc2)n1` (single isomer, unassigned) [Example 285, (R) or (S)-N-(amino(5-(2-hydroxypropan-2-yl)-1-phenyl-1H-pyrazol-3-yl)(oxo)-λ^6-sulfaneylidene)-2-(4-(2-cyclohexylacetyl)-2,6-diisopropylphenyl) acetamide], for which the IC50 was in the range of 1000 to 5000 nM. In the case of `CC(C)c1cc2c(c(C(C)C)c1CC(=O)N=S(N)(=O)c1cnc(C(C)(C)O)s1)CCC2` (single isomer, unassigned) [Example 213, (S) or (R)-N-(amino(2-(2-hydroxypropan-2-yl)thiazol-5-yl)(oxo)-λ^6-sulfaneylidene)-2-(4,6-diisopropyl-2,3-dihydro-1H-inden-5-yl)acetamide], the IC50 lay in the range of 1000 to 5000 nM.

Take `CC(C)c1ccc(F)c(C(C)C)c1CC(=O)N=S(=O)(NC(=O)Cc1c(C(C)C)ccc(F)c1C(C)C)c1ccc(CN(C)C)nc1` (stereo not drawn) [Example 225, N-(6-((dimethylamino)methyl)-N-(2-(3-fluoro-2,6-diisopropylphenyl)acetyl)pyridine-3-sulfonimidoyl)-2-(3-fluoro-2,6-diisopropylphenyl) acetamide]: the IC50 was 5000 to 30000 nM.

Still in this experiment, the particulars now being: Homo sapiens, THP-1, Table B2; 2% fetal bovine serum; cells printed as numeric bound; read-out: hTHP-1 IC50 (Average IC50 of compounds in hTHP-1 assay).
For the compound `CNCc1ccc(S(N)(=O)=NC(=O)Cc2c(-c3ccccc3)ccc3c2CCC3)cc1` (racemic) [Example 380, (R) and (S)—N-(amino(4-((methylamino)methyl)phenyl)(oxo)-λ^6-sulfaneylidene)-2-(5-phenyl-2,3-dihydro-1H-inden-4-yl)acetamide], the IC50 was above 30000 nM.

The experiment is the same for the next values; noted with them: Homo sapiens, THP-1, Table B2; 2% fetal bovine serum; class symbols; read-out: hTHP-1 IC50 (Average IC50 of compounds in hTHP-1 assay).
Take `CC(C)c1cc(C#N)c(F)c(C(C)C)c1CC(=O)N=S(N)(=O)c1cnc(C(O)CO)s1` (stereo not drawn) [compound 382]: the IC50 fell in the range of 1000 to 5000 nM. Still for that read-out and setting: the value for `CC(C)c1c2c(c3c(c1CC(=O)N=S(N)(=O)c1sc(C(C)(C)O)cc1F)CCC3)COC2` (stereo not drawn) [Example 395, N-(Amino(3-fluoro-5-(2-hydroxypropan-2-yl)thiophen-2-yl) (oxo)-λ^6-sulfaneylidene)-2-(4-isopropyl-3,6,7,8-tetrahydro-1H-indeno[4,5-c]furan-5-yl)acetamide] was 200 to 1000 nM.

Still in this experiment, the particulars now being: Homo sapiens, THP-1, read-out: hTHP-1 IC50 in 2% FBS, average IC50; hTHP-1 assay containing 2% fetal bovine serum.
Regarding `CC(C)c1c2c(c3c(c1CC(=O)N=S(N)(=O)c1sc(C(C)(C)O)cc1F)CCC3)COC2` (single isomer, unassigned) [Example 411, (R) or (S)-N-(amino(3-fluoro-5-(2-hydroxypropan-2-yl)thiophen-2-yl)(oxo)-λ^6-sulfaneylidene)-2-(4-isopropyl-3,6,7,8-tetrahydro-1H-indeno[4,5-c]furan-5-yl)acetamide], the IC50 was in the range of 200 to 1000 nM.

Still in this experiment, the particulars now being: Table B1; 2% fetal bovine serum; class symbols; read-out: hTHP-1 IC50 (Average IC50 of compounds in hTHP-1 assay).
Turning to `CC(C)(O)c1ncc(S(N)(=O)=NC(=O)Cc2c3c(cc4c2CC4)CCC3)s1` [Example 223, (S)- and (R)—N-(amino(2-(2-hydroxypropan-2-yl)thiazol-5-yl)(oxo)-λ^6-sulfaneylidene)-2-(2,4,5,6-tetrahydro-1H-cyclobuta[f]inden-3-yl)acetamide], the IC50 was 1000 to 5000 nM. As for `CC(C)c1cc(OC(F)F)cc(C(C)C)c1CC(=O)N=S(N)(=O)c1cnc(C(C)(C)O)s1` (single isomer, unassigned) [Example 48, (S)- or (R)-2-(4-(difluoromethoxy)-2,6-diisopropylphenyl)-N-(2-(2-hydroxypropan-2-yl)thiazol-5-ylsulfonimidoyl)acetamide], the IC50 was 40 to 200 nM. As to “2-(4-Fluoro-2,6-diisopropylphenyl)-N-(4-(2-hydroxypropan-2-yl)phenylsulfonimidoyl)acetamide [Example 1]”, the IC50 fell in the range of 5000 to 30000 nM.

As for `CC(C)c1ccc(F)c(C(C)C)c1CC(=O)N=S(N)(=O)c1cc(C(C)(C)O)cs1` (single isomer, unassigned) [Example 159, (R) or (S)-N-(amino(4-(2-hydroxypropan-2-yl)thiophen-2-yl)(oxo)-λ^6-sulfaneylidene)-2-(3-fluoro-2,6-diisopropylphenyl) acetamide], the IC50 was in the range of 40 to 200 nM. Same read-out and setting: the value for `CC(C)c1cc(-c2ccc3c(c2)OC(F)(F)O3)cc(C(C)C)c1CC(=O)N=S(N)(=O)c1ncc(C(C)(C)O)s1` (single isomer, unassigned) [Example 166, (R) or (S)-N-(amino(5-(2-hydroxypropan-2-yl)thiazol-2-yl)(oxo)-λ^6-sulfaneylidene)-2-(4-(2,2-difluorobenzo[d] [1,3]dioxol-5-yl)-2,6-diisopropylphenyl) acetamide] was 40 to 200 nM; that for `CC(C)c1cc(C#N)c(F)c(C(C)C)c1CC(=O)N=S(N)(=O)c1nc(C(C)(C)O)cs1` (single isomer, unassigned) [Example 190, (R) or (S)-N-(amino(4-(2-hydroxypropan-2-yl)thiazol-2-yl)(oxo)-λ^6-sulfaneylidene)-2-(4-cyano-3-fluoro-2,6-diisopropylphenyl) acetamide] was 40 to 200 nM.
